Several values for one entry are separate records, joined by “and”; a condition that tells them apart may be missing. Equal entries are not always repeated. Activity calls are given as the source filed them. No cut-off for these calls is given here.
Tests used:
[1] = Stability in rat liver microsomes assessed as compound remaining at 1 uM after 30 mins; format: ADME; settings: read-out: Stability
[2] = Terminal phase volume of distribution in rat at 5 uM/kg, iv or 30 uM/kg, po; format: ADME, organism-based; settings: in vivo, read-out: Vbeta
[3] = Plasma clearance in rat at 5 uM/kg, iv or 30 uM/kg, po; format: ADME, organism-based
[4] = target: T1, Voltage-dependent T-type calcium channel subunit alpha-1H (Homo sapiens, UniProt O95180); assay: Inhibition of human recombinant Cav3.2 channel at 10 uM
Rattus norvegicus [5] = assay: Antinociceptive activity in Sprague-Dawley rat model of capsaicin-induced secondary mechanical hyperalgesia model assessed as attenuation of nociception at 500 uM/kg, ip administered 1 hr before behavioral testing by von Frey filaments test; format: functional, organism-based
[6] = target: T1, Voltage-dependent T-type calcium channel subunit alpha-1H; assay: Inhibition of human recombinant Cav3.2 channel
[7] = Stability in human liver microsomes assessed as compound remaining at 1 uM after 30 mins; format: ADME; settings: read-out: Stability
[8] = Stability in dog liver microsomes assessed as compound remaining at 1 uM after 30 mins; format: ADME, Canis lupus familiaris; settings: read-out: Stability
[9] = Stability in monkey liver microsomes assessed as compound remaining at 1 uM after 30 mins; format: ADME, Macaca mulatta; settings: rhesus monkey, read-out: Stability
[10] = target: Voltage-dependent T-type calcium channel subunit alpha-1H (Rattus norvegicus, UniProt Q9EQ60); assay: Inhibition of Cav3.2 channel in rat DRG neurons assessed as reduction in LVA currents
[11] = Aqueous solubility in phosphate buffer at pH 7.4; format: physicochemical
[12] = Solubility in 0.1 HCl solution; format: physicochemical
[13] = Protein binding in rat; format: ADME, organism-based; settings: plasma, read-out: PB (converted)
[14] = Protein binding in human; format: ADME, organism-based; settings: plasma, read-out: PB (converted)
[15] = target: T2, Nuclear receptor subfamily 1 group I member 2 (Homo sapiens, UniProt O75469); assay: Activation of PXR (unknown origin) assessed as induction of CYP3A4; format: ADME
T2 sequence (O75469 whole entry): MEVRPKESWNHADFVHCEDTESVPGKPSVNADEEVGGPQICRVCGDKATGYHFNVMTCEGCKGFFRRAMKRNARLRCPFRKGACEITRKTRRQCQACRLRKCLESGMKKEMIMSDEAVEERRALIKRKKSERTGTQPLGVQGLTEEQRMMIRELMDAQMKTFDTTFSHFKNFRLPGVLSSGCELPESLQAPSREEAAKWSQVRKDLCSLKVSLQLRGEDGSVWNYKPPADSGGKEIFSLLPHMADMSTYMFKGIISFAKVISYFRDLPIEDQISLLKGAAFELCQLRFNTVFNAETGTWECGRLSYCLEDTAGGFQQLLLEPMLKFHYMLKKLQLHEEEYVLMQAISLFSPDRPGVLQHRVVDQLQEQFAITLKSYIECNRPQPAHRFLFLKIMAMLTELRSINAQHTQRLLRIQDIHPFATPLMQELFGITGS

[16] = target: T3, Aryl hydrocarbon receptor (Homo sapiens, UniProt P35869); assay: Activation of aryl hydrocarbon receptor (unknown origin) assessed as induction of CYP1A2 mRNA expression; format: ADME
T3 sequence (P35869 whole entry): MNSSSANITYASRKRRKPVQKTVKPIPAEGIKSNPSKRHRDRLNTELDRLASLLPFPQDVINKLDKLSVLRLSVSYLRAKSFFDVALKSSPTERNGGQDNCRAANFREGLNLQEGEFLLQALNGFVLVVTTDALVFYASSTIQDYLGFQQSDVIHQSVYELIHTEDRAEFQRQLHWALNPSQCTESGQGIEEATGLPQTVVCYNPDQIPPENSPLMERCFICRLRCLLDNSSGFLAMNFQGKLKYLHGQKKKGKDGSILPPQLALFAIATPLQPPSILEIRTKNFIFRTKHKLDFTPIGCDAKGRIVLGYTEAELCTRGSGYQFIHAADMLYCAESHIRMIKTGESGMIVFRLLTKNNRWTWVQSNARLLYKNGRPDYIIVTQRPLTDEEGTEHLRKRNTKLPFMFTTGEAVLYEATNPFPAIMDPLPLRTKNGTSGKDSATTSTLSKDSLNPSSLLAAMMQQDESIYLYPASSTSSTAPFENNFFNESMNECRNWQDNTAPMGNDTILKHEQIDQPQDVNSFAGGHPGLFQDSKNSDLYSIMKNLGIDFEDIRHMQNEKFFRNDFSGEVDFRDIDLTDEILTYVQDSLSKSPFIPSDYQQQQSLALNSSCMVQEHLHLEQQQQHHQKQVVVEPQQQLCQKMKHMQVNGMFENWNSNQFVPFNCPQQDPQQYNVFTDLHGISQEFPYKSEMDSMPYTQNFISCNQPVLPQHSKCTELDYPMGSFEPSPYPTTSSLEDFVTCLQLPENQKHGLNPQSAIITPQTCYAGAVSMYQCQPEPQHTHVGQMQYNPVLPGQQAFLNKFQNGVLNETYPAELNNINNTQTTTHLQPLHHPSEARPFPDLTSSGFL

Rattus norvegicus [17] = assay: Antinociceptive activity in Sprague-Dawley rat model of capsaicin-induced secondary mechanical hyperalgesia model assessed as attenuation of nociception at 3 to 100 mg/kg, po administered 1 hr before behavioral testing by von Frey filaments test; format: functional, organism-based
Rattus norvegicus [18] = assay: Toxicity in orally dosed Sprague-Dawley rat assessed effect on animal balance by Edge test; format: organism-based; settings: in vivo, po
Rattus norvegicus [19] = assay: Toxicity in orally dosed Sprague-Dawley rat assessed effect on animal motor performance by Edge test; format: organism-based; settings: in vivo, po
Plasma = assay: Plasma concentration in Sprague-Dawley rat at 30 mg/kg, iv; format: ADME, organism-based; settings: in vivo
Rattus norvegicus [20] = assay: Cardiovascular toxicity in Sprague-Dawley rat at 30 mg/kg, iv assessed as induction of changes in mean arterial pressure; format: organism-based, Artery; settings: in vivo
Rattus norvegicus [21] = assay: Cardiovascular toxicity in Sprague-Dawley rat at 30 mg/kg, iv assessed as induction of changes in heart rate; format: organism-based; settings: in vivo
Rattus norvegicus [22] = assay: Cardiovascular toxicity in Sprague-Dawley rat at 30 mg/kg, iv assessed as induction of changes in left ventricular contractility; format: organism-based, Heart left ventricle; settings: in vivo
Rattus norvegicus [23] = assay: Cardiovascular toxicity in Sprague-Dawley rat at 30 mg/kg, iv assessed as induction of changes in vascular resistance; format: organism-based; settings: in vivo

T1 sequence (O95180 whole entry): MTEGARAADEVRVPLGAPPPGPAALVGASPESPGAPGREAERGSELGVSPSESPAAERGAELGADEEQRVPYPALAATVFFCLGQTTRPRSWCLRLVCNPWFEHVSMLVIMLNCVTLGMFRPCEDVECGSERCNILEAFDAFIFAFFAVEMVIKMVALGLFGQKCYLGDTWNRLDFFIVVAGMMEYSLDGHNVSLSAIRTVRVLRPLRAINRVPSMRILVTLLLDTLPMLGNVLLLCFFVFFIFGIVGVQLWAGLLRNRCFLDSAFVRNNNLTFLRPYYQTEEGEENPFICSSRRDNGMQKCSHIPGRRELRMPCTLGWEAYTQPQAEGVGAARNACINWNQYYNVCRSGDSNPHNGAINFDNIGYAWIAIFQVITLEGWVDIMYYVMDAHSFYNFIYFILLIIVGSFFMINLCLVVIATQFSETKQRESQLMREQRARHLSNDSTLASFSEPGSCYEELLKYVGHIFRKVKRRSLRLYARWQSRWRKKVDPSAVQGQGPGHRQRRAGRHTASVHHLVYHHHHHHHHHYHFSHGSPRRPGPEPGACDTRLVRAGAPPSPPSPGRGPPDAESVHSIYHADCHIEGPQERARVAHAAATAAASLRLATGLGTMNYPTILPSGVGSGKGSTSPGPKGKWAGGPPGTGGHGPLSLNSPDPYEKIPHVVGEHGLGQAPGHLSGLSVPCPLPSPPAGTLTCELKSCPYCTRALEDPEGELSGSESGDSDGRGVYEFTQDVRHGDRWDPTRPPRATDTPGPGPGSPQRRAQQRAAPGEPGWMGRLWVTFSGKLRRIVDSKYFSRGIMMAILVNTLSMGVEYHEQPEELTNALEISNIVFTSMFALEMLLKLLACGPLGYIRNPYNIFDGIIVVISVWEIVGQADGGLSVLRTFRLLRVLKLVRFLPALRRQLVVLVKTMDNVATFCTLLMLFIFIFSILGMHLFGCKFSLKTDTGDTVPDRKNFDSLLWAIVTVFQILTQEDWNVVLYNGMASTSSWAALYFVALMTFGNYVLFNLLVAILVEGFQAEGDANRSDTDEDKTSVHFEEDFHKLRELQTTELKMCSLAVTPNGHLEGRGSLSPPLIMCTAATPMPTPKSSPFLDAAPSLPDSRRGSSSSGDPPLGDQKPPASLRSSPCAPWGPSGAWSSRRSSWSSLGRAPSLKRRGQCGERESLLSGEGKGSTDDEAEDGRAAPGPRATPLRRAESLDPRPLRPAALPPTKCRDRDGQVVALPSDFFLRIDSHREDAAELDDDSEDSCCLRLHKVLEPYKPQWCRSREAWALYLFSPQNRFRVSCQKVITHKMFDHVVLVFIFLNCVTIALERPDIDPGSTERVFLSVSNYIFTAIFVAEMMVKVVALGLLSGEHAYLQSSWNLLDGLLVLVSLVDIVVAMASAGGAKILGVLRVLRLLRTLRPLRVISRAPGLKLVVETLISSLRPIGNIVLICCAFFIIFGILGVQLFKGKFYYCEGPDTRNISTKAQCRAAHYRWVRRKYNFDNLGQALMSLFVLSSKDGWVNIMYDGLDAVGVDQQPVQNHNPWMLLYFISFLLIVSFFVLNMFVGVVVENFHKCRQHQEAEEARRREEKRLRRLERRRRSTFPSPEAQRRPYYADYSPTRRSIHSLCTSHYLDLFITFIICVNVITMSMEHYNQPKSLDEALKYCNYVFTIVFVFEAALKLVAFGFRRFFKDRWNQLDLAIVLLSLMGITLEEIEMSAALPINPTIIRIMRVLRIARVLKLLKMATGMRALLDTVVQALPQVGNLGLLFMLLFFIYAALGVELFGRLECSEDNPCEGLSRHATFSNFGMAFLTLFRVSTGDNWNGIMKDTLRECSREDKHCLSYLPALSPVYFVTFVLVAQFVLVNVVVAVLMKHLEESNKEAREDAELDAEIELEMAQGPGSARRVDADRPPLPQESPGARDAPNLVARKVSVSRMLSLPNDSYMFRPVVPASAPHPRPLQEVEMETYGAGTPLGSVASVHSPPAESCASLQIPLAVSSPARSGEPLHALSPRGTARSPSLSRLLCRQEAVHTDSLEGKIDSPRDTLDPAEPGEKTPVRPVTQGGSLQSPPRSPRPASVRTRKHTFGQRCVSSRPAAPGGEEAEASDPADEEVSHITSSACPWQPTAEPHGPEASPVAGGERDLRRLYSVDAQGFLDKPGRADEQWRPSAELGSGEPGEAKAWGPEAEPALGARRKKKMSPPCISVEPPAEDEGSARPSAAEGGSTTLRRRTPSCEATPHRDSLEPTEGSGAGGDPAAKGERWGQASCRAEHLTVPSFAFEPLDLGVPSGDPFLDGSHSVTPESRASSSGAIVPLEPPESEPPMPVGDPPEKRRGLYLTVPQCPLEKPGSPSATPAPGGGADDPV
Chain of Voltage-dependent T-type calcium channel subunit alpha-1H (Rattus norvegicus, UniProt Q9EQ60) (Q9EQ60 whole entry): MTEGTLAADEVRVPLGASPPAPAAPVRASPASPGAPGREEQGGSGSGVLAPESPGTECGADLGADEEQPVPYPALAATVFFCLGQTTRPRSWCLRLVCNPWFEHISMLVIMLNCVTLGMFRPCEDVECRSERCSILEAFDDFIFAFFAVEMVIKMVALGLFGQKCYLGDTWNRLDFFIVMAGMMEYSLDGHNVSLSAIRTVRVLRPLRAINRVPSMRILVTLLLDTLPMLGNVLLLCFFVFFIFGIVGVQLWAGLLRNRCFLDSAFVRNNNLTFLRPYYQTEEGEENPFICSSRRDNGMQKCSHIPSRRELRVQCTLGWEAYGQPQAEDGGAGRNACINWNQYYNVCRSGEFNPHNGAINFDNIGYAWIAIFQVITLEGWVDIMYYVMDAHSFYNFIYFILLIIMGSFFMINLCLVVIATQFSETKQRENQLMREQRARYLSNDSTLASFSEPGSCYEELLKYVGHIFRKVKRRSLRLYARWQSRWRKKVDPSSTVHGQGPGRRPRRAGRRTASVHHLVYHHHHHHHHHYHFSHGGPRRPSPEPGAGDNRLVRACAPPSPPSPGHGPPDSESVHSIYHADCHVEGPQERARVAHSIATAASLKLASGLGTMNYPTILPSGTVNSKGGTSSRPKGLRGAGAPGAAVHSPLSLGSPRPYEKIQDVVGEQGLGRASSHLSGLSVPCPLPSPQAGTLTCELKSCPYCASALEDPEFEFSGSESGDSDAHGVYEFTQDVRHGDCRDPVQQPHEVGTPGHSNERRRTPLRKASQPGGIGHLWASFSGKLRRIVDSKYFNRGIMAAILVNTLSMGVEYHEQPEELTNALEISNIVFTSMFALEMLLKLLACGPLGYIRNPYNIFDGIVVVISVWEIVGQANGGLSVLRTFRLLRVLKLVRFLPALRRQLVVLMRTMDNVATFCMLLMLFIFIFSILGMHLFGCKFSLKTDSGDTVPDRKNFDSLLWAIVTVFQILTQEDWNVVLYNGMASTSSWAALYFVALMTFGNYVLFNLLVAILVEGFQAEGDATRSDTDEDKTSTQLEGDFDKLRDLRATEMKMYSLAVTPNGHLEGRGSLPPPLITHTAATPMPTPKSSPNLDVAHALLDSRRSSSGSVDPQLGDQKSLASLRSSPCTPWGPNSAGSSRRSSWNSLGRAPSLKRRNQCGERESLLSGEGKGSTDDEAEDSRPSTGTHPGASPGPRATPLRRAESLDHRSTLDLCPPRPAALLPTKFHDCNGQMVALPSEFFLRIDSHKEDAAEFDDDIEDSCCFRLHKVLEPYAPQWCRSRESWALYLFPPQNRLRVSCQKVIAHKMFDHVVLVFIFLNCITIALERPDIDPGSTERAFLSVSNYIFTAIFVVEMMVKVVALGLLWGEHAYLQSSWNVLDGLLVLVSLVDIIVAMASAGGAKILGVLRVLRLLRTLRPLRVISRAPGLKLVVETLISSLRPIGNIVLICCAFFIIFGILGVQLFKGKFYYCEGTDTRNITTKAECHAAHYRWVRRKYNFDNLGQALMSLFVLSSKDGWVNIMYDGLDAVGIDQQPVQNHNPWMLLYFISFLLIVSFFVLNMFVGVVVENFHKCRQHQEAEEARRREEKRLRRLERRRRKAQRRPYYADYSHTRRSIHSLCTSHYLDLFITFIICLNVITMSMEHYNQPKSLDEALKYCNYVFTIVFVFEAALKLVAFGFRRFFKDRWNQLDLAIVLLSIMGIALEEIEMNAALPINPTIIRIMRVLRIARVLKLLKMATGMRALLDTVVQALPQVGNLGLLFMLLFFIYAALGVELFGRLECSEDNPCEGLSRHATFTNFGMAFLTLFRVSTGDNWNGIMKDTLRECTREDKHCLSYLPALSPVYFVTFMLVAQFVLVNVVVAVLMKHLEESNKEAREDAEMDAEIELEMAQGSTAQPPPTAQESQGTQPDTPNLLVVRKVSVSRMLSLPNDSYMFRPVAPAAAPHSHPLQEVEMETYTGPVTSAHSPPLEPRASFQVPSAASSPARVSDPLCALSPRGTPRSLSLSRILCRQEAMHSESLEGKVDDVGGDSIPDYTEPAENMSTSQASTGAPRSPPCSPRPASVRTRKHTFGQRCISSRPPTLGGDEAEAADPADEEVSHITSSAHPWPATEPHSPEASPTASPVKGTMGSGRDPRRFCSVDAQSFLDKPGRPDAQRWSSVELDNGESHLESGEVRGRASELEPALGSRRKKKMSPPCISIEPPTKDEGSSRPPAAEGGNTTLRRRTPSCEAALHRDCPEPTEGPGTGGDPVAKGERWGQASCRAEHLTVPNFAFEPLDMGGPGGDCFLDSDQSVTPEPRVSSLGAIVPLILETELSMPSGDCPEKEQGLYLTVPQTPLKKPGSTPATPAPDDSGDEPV

For `O=C(c1cccc(S(=O)(=O)Nc2ccccc2F)c1)N1CCN2CCC[C@@H]2C1`, the remaining at 0.5 h, 1 µM [1] was 68%, the Vd at 5 µmol/kg [2] was 0.65 L/kg and the clearance [3] was 1.79 L/h/kg.
`O=C(c1cccc(S(=O)(=O)Nc2ccc(C(F)(F)F)cc2)c1)N1CCN2CCC[C@@H]2C1` showed a clearance [3] of 0.45 L/h/kg and an inhibition [4] of less than 30%.
For `NCC1(CC(=O)O)CCCCC1`, the Activity (Rattus norvegicus [5]) was “Active”.
`CC1Cc2ccccc2N1S(=O)(=O)c1cccc(C(=O)NCC2CCCCC2)c1` (configuration not stated) showed an IC50 [6] of 5 µM and a remaining at 0.5 h, 1 µM [1] of 0.1%.
`O=C(c1cccc(S(=O)(=O)Nc2c(F)cccc2F)c1)N1CCN2CCC[C@@H]2C1` gave a clearance [3] of 0.92 L/h/kg and an inhibition [4] of less than 30%.
With `C[C@@H]1CN(C(=O)c2cccc(S(=O)(=O)Nc3ccc(F)cc3)c2)C[C@H](C)O1` the remaining at 0.5 h, 1 µM [1] was 46%, the Vd at 5 µmol/kg [2] was 0.75 L/kg and the clearance [3] was 1.66 L/h/kg.
`O=C(c1cc(S(=O)(=O)Nc2ccccc2F)c(Cl)cc1Cl)N1CCN2CCC[C@@H]2C1` showed an IC50 [6] of 19 µM.
`O=C(c1cccc(S(=O)(=O)Nc2ccccc2C(F)(F)F)c1)N1CCN2CCC[C@@H]2C1` gave a clearance [3] of 0.74 L/h/kg and an inhibition [4] of less than 30%.
With `O=C(c1cccc(S(=O)(=O)Nc2ccccc2F)c1)N1CCN2CCC[C@H]2C1` the clearance [3] was 3.36 L/h/kg and the inhibition [4] was less than 30%.
With `O=C(c1cccc(S(=O)(=O)Nc2ccc(C(F)(F)F)cc2)c1)N1CCN2CCC[C@H]2C1` the clearance [3] was 0.81 L/h/kg and the inhibition [4] was less than 30%.
For `O=C(c1cccc(S(=O)(=O)Nc2cccc(F)c2F)c1)N1CCN2CCC[C@@H]2C1`, the clearance [3] was 1.21 L/h/kg and the inhibition [4] was less than 30%.
In the case of `CC1CC(C)CN(C(=O)c2cccc(S(=O)(=O)N3c4ccccc4CC3C)c2)C1` (configuration not stated), the IC50 [6] is reported as 3 µM and the remaining at 0.5 h, 1 µM [1] is reported as 0.3%.
With `O=C(c1cccc(S(=O)(=O)Nc2ccccc2Cl)c1)N1CCN2CCC[C@@H]2C1` the clearance [3] was 1.93 L/h/kg and the inhibition [4] was less than 30%.
In the case of `CN(c1ccccc1F)S(=O)(=O)c1cc(C(=O)N2CCN3CCC[C@@H]3C2)c(Cl)cc1F`, the remaining at 0.5 h, 1 µM [1] is reported as 0.04% and the remaining at 0.5 h, 1 µM [7] is reported as less than 0.01%.
Compound `O=C(c1cccc(S(=O)(=O)Nc2cccc(F)c2F)c1)N1CCN2CCC[C@H]2C1` has a clearance [3] of 2.28 L/h/kg and an inhibition [4] of less than 30%.
`Cl.O=C(c1cc(S(=O)(=O)Nc2ccccc2F)c(F)cc1Cl)N1CCN2CCC[C@@H]2C1` showed an IC50 [6] of 2.3 µM, a remaining at 0.5 h, 1 µM [1] of 81% and a Vd at 5 µmol/kg [2] of 2.7 L/kg. The clearance [3] was 0.55 L/h/kg, the remaining at 0.5 h, 1 µM [7] was 95% and the remaining at 0.5 h, 1 µM [8] was 100%. For the same compound, the remaining at 0.5 h, 1 µM [9] was 88%, the IC50 [10] was 7.6 µM and the solubility [11] was 489 µM. The solubility [12] was greater than 9500 µM, the fraction unbound [13] was 0.111 and the fraction unbound [14] was 0.148. The EC50 [15] was greater than 10 µM, the EC50 [16] was greater than 10 µM and the Activity (Rattus norvegicus [17]) was “Dose-dependent effect”. For the same compound, the ED50 (Rattus norvegicus [18]) was > 300 mg kg-1 and 114 ug ml-1, the ED50 (Rattus norvegicus [19]) was > 300 mg kg-1 and 114 ug ml-1 and the Cp (Plasma) was 43.9 µg/mL. For the same compound, the Activity (Rattus norvegicus [20]) was “Non-toxic”, the Activity (Rattus norvegicus [21]) was “Non-toxic” and the Activity (Rattus norvegicus [22]) was “Non-toxic”. The Activity (Rattus norvegicus [23]) was “Non-toxic”.

Reference: ChEMBL document CHEMBL3588745, “Optimization of ADME Properties for Sulfonamides Leading to the Discovery of a T-Type Calcium Channel Blocker, ABT-639” (ACS Med Chem Lett, 2015)
